Assays:
[1] = 83 kPa, Liquid; for speed of sound: Frequency=3 MHz, Single path-length method; for mass density: Vibrating tube method
[2] = molar heat capacity at constant pressure; conditions: 83 kPa, Liquid, DSC

CCCCCCCCC(=O)OCC(COC(=O)CCCCCCCC)(COC(=O)CCCCCCCC)COC(=O)CCCCCCCC [pentaerythritol tetranonanoate]
Conditions | mass density [kg/m3] | molar heat capacity at constant pressure [J/K/mol] | speed of sound [m/s]
[1], 283.15 K | 961.49 | – | 1438.9
[1], 288.15 K | 957.85 | – | 1421.7
[1], 293.15 K | 954.2 | – | 1404.7
[1], 298.15 K | 950.58 | – | 1387.9
[1], 303.15 K | 946.97 | – | 1371.5
[1], 308.15 K | 943.37 | – | 1355.2
[1], 313.15 K | 939.77 | – | 1339.1
[1], 318.15 K | 936.18 | – | 1323.2
[1], 323.15 K | 932.6 | – | 1307.5
[1], 328.15 K | 929.02 | – | 1292
[1], 333.15 K | 925.45 | – | 1276.6
[1], 338.15 K | 921.88 | – | 1261.4
[1], 343.15 K | 918.32 | – | 1246.4
[2], 313.13 K | – | 1352.3 | –
[2], 314.13 K | – | 1354.3 | –
[2], 315.14 K | – | 1355.7 | –
[2], 316.13 K | – | 1357.8 | –
[2], 317.14 K | – | 1359.9 | –
[2], 318.13 K | – | 1362 | –
[2], 319.13 K | – | 1363.4 | –
[2], 320.14 K | – | 1365.5 | –
[2], 321.13 K | – | 1367.6 | –
[2], 322.13 K | – | 1369 | –
[2], 323.14 K | – | 1371.1 | –
[2], 324.13 K | – | 1373.2 | –
[2], 325.13 K | – | 1374.6 | –
[2], 326.13 K | – | 1376.6 | –
[2], 327.13 K | – | 1378.7 | –
[2], 328.14 K | – | 1380.8 | –
[2], 329.14 K | – | 1382.9 | –
[2], 330.13 K | – | 1384.3 | –
[2], 331.13 K | – | 1386.4 | –
[2], 332.13 K | – | 1388.5 | –
[2], 333.13 K | – | 1390.6 | –
[2], 334.13 K | – | 1392.7 | –
[2], 335.13 K | – | 1394.8 | –
[2], 336.14 K | – | 1396.9 | –
[2], 337.13 K | – | 1399 | –
[2], 338.13 K | – | 1401 | –
[2], 339.13 K | – | 1403.1 | –
[2], 340.13 K | – | 1405.2 | –
[2], 341.14 K | – | 1406.6 | –
[2], 342.14 K | – | 1408.7 | –
[2], 343.13 K | – | 1410.8 | –
[2], 344.13 K | – | 1412.9 | –
[2], 345.14 K | – | 1415 | –
[2], 346.13 K | – | 1417.1 | –
[2], 347.13 K | – | 1419.2 | –
[2], 348.13 K | – | 1421.3 | –
[2], 349.13 K | – | 1423.4 | –
[2], 350.14 K | – | 1425.4 | –
[2], 351.13 K | – | 1427.5 | –
[2], 352.13 K | – | 1429.6 | –
[2], 353.14 K | – | 1431.7 | –
[2], 354.13 K | – | 1433.8 | –
[2], 355.14 K | – | 1435.9 | –
[2], 356.13 K | – | 1438 | –
[2], 357.13 K | – | 1440.1 | –
[2], 358.13 K | – | 1442.2 | –
[2], 359.13 K | – | 1444.3 | –
[2], 360.13 K | – | 1446.4 | –
[2], 361.13 K | – | 1448.4 | –
[2], 362.13 K | – | 1450.5 | –
[2], 363.13 K | – | 1452.6 | –
[2], 364.13 K | – | 1454.7 | –
[2], 365.13 K | – | 1456.8 | –
[2], 366.13 K | – | 1458.9 | –
[2], 367.13 K | – | 1461 | –
[2], 368.13 K | – | 1463.1 | –
[2], 369.13 K | – | 1465.2 | –
[2], 370.13 K | – | 1467.3 | –
[2], 371.13 K | – | 1469.4 | –
[2], 372.13 K | – | 1471.4 | –
[2], 373.13 K | – | 1473.5 | –
[2], 374.14 K | – | 1475.6 | –
[2], 375.14 K | – | 1477.7 | –
[2], 376.13 K | – | 1479.8 | –
[2], 377.13 K | – | 1481.9 | –
[2], 378.13 K | – | 1484 | –
[2], 379.13 K | – | 1486.1 | –
[2], 380.14 K | – | 1488.2 | –
[2], 381.13 K | – | 1491 | –
[2], 382.13 K | – | 1493.1 | –
[2], 383.13 K | – | 1495.1 | –
[2], 384.13 K | – | 1497.2 | –
[2], 385.13 K | – | 1499.3 | –
[2], 386.13 K | – | 1501.4 | –
[2], 387.13 K | – | 1503.5 | –
[2], 388.13 K | – | 1505.6 | –
[2], 389.13 K | – | 1507.7 | –
[2], 390.13 K | – | 1509.8 | –
[2], 391.13 K | – | 1511.9 | –
[2], 392.13 K | – | 1514 | –
[2], 393.13 K | – | 1516.1 | –
[2], 394.13 K | – | 1518.1 | –
[2], 395.14 K | – | 1520.2 | –
[2], 396.13 K | – | 1523 | –
[2], 397.13 K | – | 1525.1 | –
[2], 398.13 K | – | 1527.2 | –
[2], 399.13 K | – | 1529.3 | –
[2], 400.13 K | – | 1531.4 | –
[2], 401.13 K | – | 1533.5 | –
[2], 402.14 K | – | 1535.6 | –
[2], 403.13 K | – | 1537.7 | –
[2], 404.14 K | – | 1539.8 | –
[2], 405.13 K | – | 1541.8 | –
[2], 406.13 K | – | 1543.9 | –
[2], 407.13 K | – | 1546 | –
[2], 408.13 K | – | 1548.1 | –
[2], 409.13 K | – | 1550.9 | –
[2], 410.14 K | – | 1553 | –
[2], 411.13 K | – | 1554.4 | –
[2], 412.14 K | – | 1557.2 | –
